These are literature values, as cited in US20150045288A1, “COMPOSITION” (priority 2012, published 2015).

The conditions of this data set: 50% ethanol solution.

Where two headings read alike, the source gives them in different places.

On to difficidin, for which the “t90 (time at which 90% of the inhibitory substance remains as tested by HPLC)” value is 2 h (pH 3.5, room temperature) and 17 h (pH 11, room temperature).
